Measurements published in patent publication EP4772514A1, “MACROCYCLIC COMPOUNDS, PREPARATION METHOD THEREFOR, AND USE THEREOF” (Genfleet Therapeutics (Shanghai) Inc., priority 2023, dated 2025).

Key:
Assay type in all cases: cell-based
p-ERK [1] = assay: Cell p-ERK assay (HTRF, Advance ERK phospho-T202/Y204 kit) in NCI-H441 cells; settings: Homo sapiens, NCI-H441, 3 h, NCI-H441, human non-small cell lung cancer cell strain, KRAS G12V mutation; 3 h compound incubation
Outline: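 Cells with endogenous KRAS mutations, AsPC-1 (G12D) and NCI-H441 (G12V), were plated overnight and then exposed to compound for 3 h at 37 °C (final 0.1% DMSO, 10% FBS medium). ERK T202/Y204 phosphorylation in lysates was read by HTRF, and IC50 was derived from four-parameter curves of inhibition relative to DMSO and blank controls.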

p-ERK [2] = assay: Cell p-ERK assay (HTRF, Advance ERK phospho-T202/Y204 kit) in AsPC-1 cells; settings: ASPC1; AsPC-1, human pancreatic cancer cell strain, KRAS G12D mutation; 3 h compound incubation
Protocol: AsPC-1 cells were purchased from ATCC, Cat. No. CRL-1682; NCI-H441 cells were purchased from ATCC, Cat. No. HTB-174; RPMI-1640 medium was purchased from Gibco, Cat. No. 11875-093; FBS was purchased from Gibco, Cat. No. 10099-141C; penicillin/streptomycin double-antibiotic solution (PS) was purchased from Gibco, Cat. No. 15140-122; trypsin (containing EDTA) was purchased from Gibco, Cat. No. 25200-072; DMSO was purchased from VWRAMRESCO, Cat. No. 0231-500ML; 96-well cell culture plates were purchased from Corning, Cat. No. 3599; white-bottomed, opaque 96-well plates were purchased from Cisbio, Cat. No. 66PL96025; Advance ERK phospho-T202/Y204 kit was purchased from Cisbio, Cat. No. 64AERPEH; cell counter was purchased from CHEMOMETEC, model: NC-200; microplate reader was purchased from PerkinElmer, model: EnVision.
AsPC-1, a human pancreatic cancer cell strain endogenously containing a KRAS^G12D mutation, was cultured in a complete medium containing RPMI-1640 + 10% FBS + 1% PS. NCI-H441, a human non-small cell lung cancer cell strain endogenously containing a KRAS^G12V mutation, was cultured in a complete medium containing RPMI-1640 + 10% FBS + 1% PS.
The cells were digested with trypsin (containing EDTA), collected in their corresponding complete media, and counted. The density of the cell suspensions was adjusted with their corresponding complete media, and AsPC-1 cells (10000 cells/well) or NCI-H441 cells (20000 cells/well) were seeded into a 96-well cell culture plate, with the volume of the medium in each well being 80 µL. The cell culture plate was incubated in an incubator at 37 °C with 5% CO2 overnight. A series of 3.16-fold gradient dilutions of a 1000× compound stock solution were prepared with DMSO, and then diluted 200-fold with the complete medium described above to give 5× compound stock solutions. On the day after cell seeding, 20 µL of the 5× compound stock solution was added to each cell culture well. As a result, the final concentration of the compound in the cell culture well became 1×, and the DMSO content in the well was 0.1%. In addition to the compound-treated wells described above, cell-containing DMSO control wells were also set. A complete medium containing 0.5% DMSO was added at 20 µL/well. After the mixture was well mixed, the culture plate was incubated in the incubator at 37 °C with 5% CO2 for another 3 h. The medium was then removed from the culture wells, and 50 µL of cell lysis buffer (from Advance ERK phospho-T202/Y204 kit) was added to each well. The mixture was well mixed, incubated for 30 min, and then transferred to a white-bottomed, opaque 96-well assay plate at 16 µL/well, and separately, 16 µL of cell lysis buffer was added to additional wells (serving as blank wells) in the assay plate. After the transfer was completed, 4 µL of p-ERK HTRF antibody mixture (from Advance ERK phospho-T202/Y204 kit) was added to each well of the assay plate, followed by a 4-hour incubation. The HTRF signal values (RLU) were then measured using a microplate reader, and the inhibition rate of the compound against p-ERK levels was calculated as follows: IR(%) = (RLUDMSO - RLUcompound)/(RLUDMSO - RLUblank) × 100%, where RLUDMSO is the average HTRF signal value from the DMSO control well samples, RLU is the average HTRF signal value from the blank well samples, and RLUcompound is the HTRF signal value from the compound-treated well samples. Using an XLfit software, the IR(%) values were plotted against the logarithm of the compound concentrations, and the dose-response curves were fitted using the four-parameter method to calculate the IC50 values.

NCI-H441 cells = assay: 3D cell proliferation assay (CellTiter Glo-3D) in NCI-H441 cells; settings: Homo sapiens, NCI-H441, 120 h, NCI-H441, human lung cancer cell strain, KRAS G12V mutation; 3D culture, 2% FBS, 5 days; read-out: H441 AP IC50
Outline: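 KRAS^G12V NCI-H441 and KRAS^G12D AsPC-1 cells (800 cells/well each) grown in RPMI-1640 with 2% FBS and treated the day after seeding with 3.16-fold compound dilutions (0.1% DMSO) for 5 days at 37 °C. Viability by CellTiter-Glo 3D luminescence; inhibition versus DMSO and cell-free controls, IC50 from four-parameter fit.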

AsPC-1 cells = assay: 3D cell proliferation assay (CellTiter Glo-3D) in AsPC-1 cells; settings: ASPC1, 120 h; AsPC-1, human pancreatic cancer cell strain, KRAS G12D mutation; 3D culture, 2% FBS, 5 days; read-out: AsPC-1 AP IC50
Description: MIA PaCa-2 cells were purchased from ATCC, Cat. No. CRL-1420; AsPC-1 cells were purchased from ATCC, Cat. No. CRL-1682; NCI-H441 cells were purchased from ATCC, Cat. No. HTB-174; NCI-H1975 cells were purchased from ATCC, Cat. No. CRL-5908; DMEM medium was purchased from Gibco, Cat. No. 11995-065; RPMI-1640 medium was purchased from Gibco, Cat. No. 11875-093; FBS was purchased from Gibco, Cat. No. 10099-141C; penicillin/streptomycin double-antibiotic solution (PS) was purchased from Gibco, Cat. No. 15140-122; Horse serum was purchased from Gibco, Cat. No. 16050130; trypsin (containing EDTA) was purchased from Gibco, Cat. No. 25200-072; DMSO was purchased from VWRAMRESCO, Cat. No. 0231-500ML; 384-well cell culture plates were purchased from Corning, Cat. No. 3830; white-bottomed, opaque 384-well assay plates were purchased from Corning, Cat. No. 3570; CellTiter Glo-3D kit was purchased from Promega, Cat. No. G9683; cell counter was purchased from CHEMOMETEC, model: NC-200; microplate reader was purchased from PerkinElmer, model: EnVision.
MIA PaCa-2, a human pancreatic cancer cell strain endogenously containing a KRAS^G12Cmutation, was cultured in a complete medium containing DMEM + 10% FBS + 2.5% Horse serum + 1% PS. AsPC-1, a human pancreatic cancer cell strain endogenously containing a KRAS^G12D mutation, was cultured in a complete medium containing RPMI-1640 + 10% FBS + 1% PS. NCI-H441 cells, a human lung cancer cell strain endogenously containing a KRAS^G12V mutation, were cultured in a complete medium containing RPMI-1640 + 10% FBS + 1% PS. NCI-H1975, a KRAS wild-type human lung cancer cell strain whose cell proliferation […], was cultured in a complete medium containing RPMI-1640 + 10% FBS + 1% PS.
The cells were digested with trypsin (containing EDTA), collected in their respective low-serum complete media containing 2% FBS (for MIA Paca-2 cell culture: DMEM + 2% FBS + 0.5% Horse serum + 1% PS), and counted. After the cell density was adjusted as required, MIA PaCa-2 cells (200 cells/well), AsPC-1 cells (800 cells/well), NCI-H441 cells (800 cells/well), or NCI-H1975 cells (400 cells/well) were seeded into a 384-well cell culture plate, with the volume of the medium in each well being 45 µL. The cell culture plate was incubated in an incubator at 37 °C with 5% CO2 overnight. A series of 3.16-fold gradient dilutions of a 1000× compound stock solution were prepared with DMSO, and then diluted 100-fold with the complete medium containing 2% FBS described above to give 10× compound stock solutions. On the day after cell seeding, 5 µL of the 10× compound stock solution was added to each cell culture well. As a result, the final concentration of the compound in the cell culture well became 1×, and the DMSO content in the well was 0.1%. In addition to the compound-treated wells described above, cell-containing DMSO control wells (with 5 µL of the complete medium containing 1% DMSO added to each well) and cell-free medium control wells (containing 50 µL of the complete medium with 2% FBS) were also set. The culture plate was incubated in an incubator at 37 °C with 5% CO2 for another 5 days, and then 30 µL of CellTiter-Glo working solution was added to each well. The mixture was well mixed, incubated for 30 min, left to stand at room temperature for 30 min, and then transferred to a white-bottomed, opaque 384-well assay plate at 40 µL/well. The chemiluminescence values (RLU) were measured using a microplate reader, and the cell proliferation inhibition rate for each well was calculated: IR(%) = (RLUDMSO - RLUcompound)/(RLUDMSO - RLUblank) × 100%, where RLUDMSO is the average RLU signal value from the DMSO control well samples, RLUblank is the average RLU signal value from the medium control well samples, and RLUcompound is the RLU signal value from the compound-treated well samples. […]

Compound	IC50 (p-ERK [1])	IC50 (p-ERK [2])	IC50 (NCI-H441 cells)	IC50 (AsPC-1 cells)
CCn1c(F)c2c(c1-c1cc(C#CCN3CCC(C#N)CC3)cnc1[C@H](C)OC)CC(C)(C)COC(=O)[C@@H]1CCCN(N1)C(=O)[C@@H](NC(=O)[C@H]1[C@H](C)[C@@H]1C)Cc1nc(cs1)/C=C/2 (atropisomer, axis not shown; (Ra)) [Compound Z139, (1r, 2R, 3S)-N-((4^2Z, 8^3S,2E,6S)-(Ra)-1^5-(5-(3-(4-cyanopiperidin-1-yl)prop-1-yn-1-yl)-2-((S)-1-methoxyethyl)pyridin-3-yl)-1^1-ethyl-1^2-fluoro-12,12-dimethyl-7,9-dioxo-8^1,8^1,8^1,8^4,8^5,8^6-hexahydro-1^1H-10-oxa-4(4,2)-thiazola-8(1,3)-pyridazina-1(3,4)-pyrrolacyclotridecaphan-2-en-6-yl)-2,3-dimethylcyclopropane-1-carboxamide]	0.42 nM	0.4 nM	0.12 nM	0.1 nM
CCn1cc2c(c1-c1cc(C#CCN3CCC(C#N)CC3)cnc1[C@H](C)OC)CC(C)(C)COC(=O)[C@@H]1CCCN(N1)C(=O)[C@@H](NC(=O)[C@H]1[C@@H]3COC[C@@H]31)Cc1nc(cs1)/C=C/2 (atropisomer, axis not shown; (Ra)) [Compound Z50, (1R,5S,6r)-N-((4^2Z,8^3S,2E,6S)-(Ra)-1^5-(5-(3-(4-cyanopiperidin-1-yl)prop-1-yn-1-yl)-2-((S)-1-methoxyethyl)pyridin-3-yl)-1^1-ethyl-12,12-dimethyl-7,9-dioxo-8^1,8^2,8^3,8^4,8^5,8^6-hexahydro-1^1H-10-oxa-4(4,2)-thiazola-8(1,3)-pyridazina-1(3,4)-pyrrolacyclotridecaphan-2-en-6-yl)-3-oxabicyclo[3.1.0]hexane-6-carboxamide]	0.29 nM	0.11 nM	0.14 nM	0.19 nM
CCn1cc2c(c1-c1cc(N3CCN(C)CC3)cnc1[C@H](C)OC)CC(C)(C)COC(=O)[C@@H]1CCCN(N1)C(=O)[C@@H](NC(=O)[C@H]1[C@H](C)[C@@H]1C)Cc1nc(cs1)/C=C/2 (atropisomer, axis not shown) [Compound Z8A, (1r,2S,3R)-N-((4^2Z,8^3R,2E,6R)-1^1-ethyl-1^5-(2-((S)-1-methoxyethyl)-5-(4-methylpiperazin-1-yl)pyridin-3-yl)-12,12-dimethyl-7,9-dioxo-8^1,8^2,8^3,8^4,8^5,8^6-hexahydro-1^1H-10-oxa-4(4,2)-thiazola-8(1,3)-pyridazina-1(3,4)-pyrrolacyclotridecaphan-2-en-6-yl)-2,3-dimethylcyclopropane-1-carboxamide]	8.08 nM	8.19 nM	3.98 nM	3.71 nM
CCn1cc2c(c1-c1cc(C#CCN3CCC(C#N)CC3)cnc1[C@H](C)OC)CC(C)(C)COC(=O)[C@@H]1CCCN(N1)C(=O)[C@@H](NC(=O)[C@H]1[C@H](C)[C@@H]1C)Cc1nc(cs1)/C=C/2 (atropisomer, axis not shown; (Ra)) [Compound Z49, (1r,2R,3S)-N-((4 ^2Z,8^3S,2E,6S)-(Ra)-1^5-(5-(3-(4-cyanopiperidin-1-yl)prop-1-yn-1-yl)-2-((S)-1-methoxyethyl)pyridin-3-yl)-1^1-ethyl-12,12-dimethyl-7,9-dioxo-8^1,8^2,8^3,8^4,8^5,8^6-hexahydro-1^1H-10-oxa-4(4,2)-thiazola-8(1,3)-pyridazina-1(3,4)-pyrrolacyclotridecaphan-2-en-6-yl)-2,3-dimethylcyclopropane-1-carboxamide]	0.17 nM	0.13 nM	0.14 nM	0.08 nM
